Experimental data reported in ChEMBL document CHEMBL1201862, “PubChem BioAssay data set” (2004).
Calls of active or inactive are those of the source.

Columns and labels:
[1] = Glucagon-like peptide 1 release potency, NCI-H716 cell line, dose-response, half-maximal inhibitory concentration (AID 1117344); assay type: functional, cell-based
[2] = half-maximal inhibitory concentration for glucagon-like peptide-1 release, STC-1 cell line, dose-response (AID 1117345); assay type: functional, cell-based
[3] = test system: BJ; assay: cytotoxicity toward BJ-TERT-LT-ST fibroblasts, dose response, cell-based, RAS-independent, luminescence (AID 1935); assay type: functional; conditions: Homo sapiens;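 note: BJ fibroblasts immortalized with TERT plus LT and ST oncogenes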
[4] = non-specific cell cytotoxicity, dose response, cytotoxicity control for PAX8 inhibitor project, plate reader, dry powder samples (AID 743021); assay type: functional, cell-based
[5] = cytotoxicity in HEK-293T cells, dose response, cytotoxicity control for BCR NF-kB inhibitor project, luminescence, B-cell screen hits (AID 489021); assay type: functional, cell-based;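 note: HEK-293T cells carrying an NF-kB luciferase reporter; cells exposed to compound for about 14 hours before viability readout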
[6] = test system: BJ; assay: cytotoxicity toward Ras-transformed BJeLR fibroblasts, dose response, cell-based, alamar blue fluorescence, cherrypicked samples (AID 2631); assay type: functional; conditions: Homo sapiens;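 note: confirmatory dose-response assay in RAS-dependent BJ fibroblasts engineered with TERT, LT and ST, with cytotoxicity read by fluorescence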
[7] = test system: BJ; assay: cytotoxicity toward BJ-TERT fibroblasts, dose response, cell-based, RAS-independent, luminescence (AID 1933); assay type: functional; conditions: Homo sapiens
[8] = cytotoxicity toward DRD oncogenic fibroblasts, dose response, cell-based, non-viral oncogenic, luminescence (AID 1934); assay type: functional; conditions: Homo sapiens
[9] = test system: BJ; assay: cells; assay type: functional, cell-based; conditions: Homo sapiens
[10] = target: T1, Heat shock factor protein 1 (Mus musculus, UniProt P38532); assay: inhibition of MG132-induced HSE-luciferase signal, confirmation, cell-based, NIH3T3, luminescence, dose retest (AID 2382); assay type: functional;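 note: NIH3T3 fibroblasts with HSF1-driven luciferase reporter stressed by proteasome inhibitor MG132; luminescence from HSF1-driven luciferase expression after 8 hours of MG132 stress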
T1 sequence (P38532 whole entry): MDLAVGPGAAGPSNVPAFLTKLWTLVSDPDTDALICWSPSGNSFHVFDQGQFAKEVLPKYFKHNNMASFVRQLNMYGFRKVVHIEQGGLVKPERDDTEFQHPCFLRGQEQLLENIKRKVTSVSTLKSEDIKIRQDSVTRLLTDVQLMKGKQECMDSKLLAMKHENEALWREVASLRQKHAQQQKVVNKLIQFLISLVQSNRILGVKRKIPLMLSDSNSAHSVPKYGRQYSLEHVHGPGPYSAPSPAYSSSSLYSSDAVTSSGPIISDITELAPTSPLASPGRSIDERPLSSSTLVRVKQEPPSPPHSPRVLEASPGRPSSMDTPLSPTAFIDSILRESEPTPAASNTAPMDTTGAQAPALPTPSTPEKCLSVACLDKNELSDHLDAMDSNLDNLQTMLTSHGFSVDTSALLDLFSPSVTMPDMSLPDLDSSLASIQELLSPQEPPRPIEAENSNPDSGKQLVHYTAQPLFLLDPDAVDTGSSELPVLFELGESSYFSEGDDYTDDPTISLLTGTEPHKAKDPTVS

[11] = target: Paired box protein Pax-8 (Homo sapiens, UniProt Q06710); assay: inhibitors of PAX8-driven TPO luciferase reporter, dose response, RMG-I cells, cherry-pick (AID 687027); assay type: functional, cell-based;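 note: luciferase reporter driven by Pax8 target thyroperoxidase promoter measured by SteadyGlo luminescence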
Chain of Paired box protein Pax-8 (Q06710 whole entry): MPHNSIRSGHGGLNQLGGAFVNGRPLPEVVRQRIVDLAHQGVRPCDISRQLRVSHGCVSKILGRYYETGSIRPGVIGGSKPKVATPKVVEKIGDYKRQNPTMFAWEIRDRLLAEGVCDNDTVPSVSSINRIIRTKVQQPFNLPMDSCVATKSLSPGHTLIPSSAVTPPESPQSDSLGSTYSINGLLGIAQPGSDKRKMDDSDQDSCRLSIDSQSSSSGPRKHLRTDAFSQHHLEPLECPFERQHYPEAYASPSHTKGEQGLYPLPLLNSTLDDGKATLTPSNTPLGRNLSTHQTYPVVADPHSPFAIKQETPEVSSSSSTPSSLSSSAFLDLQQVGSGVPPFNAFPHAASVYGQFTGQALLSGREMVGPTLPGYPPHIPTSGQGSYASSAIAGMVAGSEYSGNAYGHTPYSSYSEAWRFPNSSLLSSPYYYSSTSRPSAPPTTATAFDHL

[12] = HepG2 cell cytotoxicity, dose response, cytotoxicity control, cherry-picked samples (AID 1159577); assay type: functional, cell-based
[13] = P. falciparum Dd2 growth inhibitors, dose response, SYBR Green, cherry-picked samples (AID 1159567); assay type: functional, cell-based
[14] = target: T2, Luciferin 4-monooxygenase (Photinus pyralis, UniProt P08659); assay: Counter Screen for Luciferase-based Assay Positives. [Related pubchem assays: 620, 618, 411 ]
T2 sequence (P08659 whole entry): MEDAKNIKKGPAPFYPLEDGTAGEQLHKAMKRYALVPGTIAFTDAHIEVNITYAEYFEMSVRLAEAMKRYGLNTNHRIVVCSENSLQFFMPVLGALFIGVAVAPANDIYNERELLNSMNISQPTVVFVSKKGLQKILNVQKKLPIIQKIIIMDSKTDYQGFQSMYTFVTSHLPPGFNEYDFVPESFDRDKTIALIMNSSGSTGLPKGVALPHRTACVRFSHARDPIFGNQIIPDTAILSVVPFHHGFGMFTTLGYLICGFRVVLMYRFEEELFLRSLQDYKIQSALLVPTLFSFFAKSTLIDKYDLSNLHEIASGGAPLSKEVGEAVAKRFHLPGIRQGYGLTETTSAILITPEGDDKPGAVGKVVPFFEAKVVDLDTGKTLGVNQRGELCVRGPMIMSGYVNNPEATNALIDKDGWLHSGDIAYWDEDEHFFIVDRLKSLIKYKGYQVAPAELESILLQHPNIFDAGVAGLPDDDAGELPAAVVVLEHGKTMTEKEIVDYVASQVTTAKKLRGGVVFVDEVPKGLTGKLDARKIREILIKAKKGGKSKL

[15] = test system: HT-1080; assay: cytotoxicity in HT1080 fibrosarcoma cells, cell-based, fluorescence readout (AID 620); assay type: functional; conditions: Homo sapiens
[16] = THP-1 cell cytotoxicity, dose response, cytotoxicity control for Vif-APOBEC3G degradation inhibitor project, THP-1 cells (AID 1117359); assay type: functional; conditions: Human immunodeficiency virus 1, THP-1
[17] = target: DNA dC->dU-editing enzyme APOBEC-3G (Homo sapiens, UniProt Q9HC16); assay: Dose Response confirmation of small molecule APOBEC3G DNA Deaminase Inhibitors via a fluorescence-based single-stranded DNA deaminase assay. [Related pubchem assays (depositor defined):AID493012, AID493028]; assay type: functional
Chain of DNA dC->dU-editing enzyme APOBEC-3G (Q9HC16 whole entry): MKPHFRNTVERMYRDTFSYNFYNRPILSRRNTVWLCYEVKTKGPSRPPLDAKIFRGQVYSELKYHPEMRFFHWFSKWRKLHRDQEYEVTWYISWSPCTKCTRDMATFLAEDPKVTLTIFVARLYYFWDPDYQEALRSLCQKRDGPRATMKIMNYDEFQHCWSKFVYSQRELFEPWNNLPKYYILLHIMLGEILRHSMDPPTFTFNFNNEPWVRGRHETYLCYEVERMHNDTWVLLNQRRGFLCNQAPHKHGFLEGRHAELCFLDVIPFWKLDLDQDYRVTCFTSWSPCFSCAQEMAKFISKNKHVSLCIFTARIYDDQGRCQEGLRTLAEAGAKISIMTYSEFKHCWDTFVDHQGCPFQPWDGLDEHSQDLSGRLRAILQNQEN

[18] = target: FAD-linked sulfhydryl oxidase ALR (Homo sapiens, UniProt P55789); assay: inhibitors of human ALR sulfhydryl oxidase, dose response, biochemical, H2O2 detection, luminescence, cherry-pick (AID 493248)
Chain of FAD-linked sulfhydryl oxidase ALR (P55789 whole entry): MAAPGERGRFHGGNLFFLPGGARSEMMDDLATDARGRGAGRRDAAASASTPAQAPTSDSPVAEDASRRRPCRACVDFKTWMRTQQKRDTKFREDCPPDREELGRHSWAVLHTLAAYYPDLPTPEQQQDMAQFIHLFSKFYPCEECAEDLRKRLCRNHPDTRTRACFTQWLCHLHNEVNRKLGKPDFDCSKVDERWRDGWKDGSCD

[19] = target: T2, Luciferin 4-monooxygenase; assay: firefly luciferase enzyme inhibitors, dose response, biochemical, luminescence (AID 1891)
[20] = Luminescence Cell-Based Dose Confirmation HTS to Identify Inhibitors of Platelet Dense Granule Release. [Related pubchem assays: 1663 (Primary HTS), 1678 (Summary of Project)]; assay type: functional
[21] = LGR2 antagonists, dose response, cell-based, HEK293, CRE-luciferase reporter, cherry pick, set 2 (AID 743343); assay type: functional;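 note: transfected cells were stimulated with diluted bursicon conditioned medium after compound addition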
[22] = target: T3, Acyl-homoserine lactone acylase PvdQ (Pseudomonas aeruginosa (strain LESB58), UniProt Q9I194); assay: P. aeruginosa PvdQ acylase inhibitors, dose response, biochemical, fluorescence, plate reader and imaging, cherry-picks (AID 493231)
T3 sequence (Q9I194 whole entry): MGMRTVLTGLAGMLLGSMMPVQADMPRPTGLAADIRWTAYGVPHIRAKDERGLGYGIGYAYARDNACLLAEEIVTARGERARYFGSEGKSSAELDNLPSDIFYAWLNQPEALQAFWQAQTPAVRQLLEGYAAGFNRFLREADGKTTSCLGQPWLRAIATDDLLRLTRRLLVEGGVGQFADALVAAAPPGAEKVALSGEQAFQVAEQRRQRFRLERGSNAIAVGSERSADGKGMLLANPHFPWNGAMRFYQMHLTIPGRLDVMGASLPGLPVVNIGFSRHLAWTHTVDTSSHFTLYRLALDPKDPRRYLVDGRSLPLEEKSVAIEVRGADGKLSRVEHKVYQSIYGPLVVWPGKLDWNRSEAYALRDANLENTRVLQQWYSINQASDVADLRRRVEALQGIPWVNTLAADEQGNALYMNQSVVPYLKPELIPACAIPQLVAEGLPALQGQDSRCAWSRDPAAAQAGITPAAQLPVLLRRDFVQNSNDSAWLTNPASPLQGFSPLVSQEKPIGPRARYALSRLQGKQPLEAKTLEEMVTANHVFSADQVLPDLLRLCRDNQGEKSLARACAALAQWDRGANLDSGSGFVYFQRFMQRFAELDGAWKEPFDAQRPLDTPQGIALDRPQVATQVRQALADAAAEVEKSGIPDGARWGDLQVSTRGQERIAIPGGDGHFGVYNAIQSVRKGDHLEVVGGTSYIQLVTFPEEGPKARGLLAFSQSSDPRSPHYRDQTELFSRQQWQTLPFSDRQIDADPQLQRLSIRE

[23] = MC4R antagonists, dose response, counter-screen for LGR2 antagonist project, cell-based, plate reader, cherry pick (AID 743444); assay type: functional;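 note: transfected HEK 293 cells stimulated with alpha-MSH peptide; potency of inhibitors of the alpha-MSH evoked signal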
[24] = A549 cell cytotoxicity, dose response, cytotoxicity control, plate reader, cherry-pick, antagonist series (AID 743412); assay type: functional, cell-based
[25] = target: T4, Protein skinhead-1 (Caenorhabditis elegans, UniProt P34707); assay type: functional
T4 sequence (P34707 whole entry): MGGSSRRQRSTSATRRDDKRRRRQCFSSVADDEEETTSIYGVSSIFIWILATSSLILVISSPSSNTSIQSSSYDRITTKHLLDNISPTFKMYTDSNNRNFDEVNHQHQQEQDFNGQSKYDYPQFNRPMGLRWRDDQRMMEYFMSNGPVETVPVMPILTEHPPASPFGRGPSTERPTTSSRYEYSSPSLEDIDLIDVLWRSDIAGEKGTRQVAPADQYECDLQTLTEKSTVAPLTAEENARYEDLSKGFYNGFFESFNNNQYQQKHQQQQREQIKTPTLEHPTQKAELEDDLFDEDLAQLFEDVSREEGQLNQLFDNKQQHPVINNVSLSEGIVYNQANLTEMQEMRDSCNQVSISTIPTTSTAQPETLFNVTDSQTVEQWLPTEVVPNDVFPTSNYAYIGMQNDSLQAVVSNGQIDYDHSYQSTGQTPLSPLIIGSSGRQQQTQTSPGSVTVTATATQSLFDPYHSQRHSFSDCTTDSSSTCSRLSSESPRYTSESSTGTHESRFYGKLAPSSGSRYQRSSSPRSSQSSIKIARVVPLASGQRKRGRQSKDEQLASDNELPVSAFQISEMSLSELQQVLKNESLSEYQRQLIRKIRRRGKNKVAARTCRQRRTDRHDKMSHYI

[26] = P. falciparum late gametocyte killing, dose response, luminescence (AID 1117278); assay type: functional, cell-based;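 note: gametocytes exposed to compound for 24 hours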
[27] = Jurkat T cell cytotoxicity, dose response, cytotoxicity control for P. falciparum gametocyte viability project, luminescence (AID 1117277); assay type: functional, cell-based;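 note: potency reflects loss of cellular ATP meaning fewer viable cells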

For `Nc1ccc(Cl)cc1C(=O)c1ccccc1F`, the IC50 [1] was > 40 µM (inactive) and the IC50 [2] was > 40 µM (inactive).

For `COC(=O)[C@@H]1Cc2c([nH]c3ccccc23)C(C)(C)N1C(=O)CCl`, the EC50 [3] was > 75 µM (inconclusive), the AC50 [4] was 3.27 µM (active) and the IC50 [5] was > 80 µM (inactive). For the same compound, the EC50 [6] was 18.1 µM (active), the EC50 [7] was 2.4 µM (inconclusive) and the EC50 [8] was 2.65 µM (inconclusive). For the same compound, the EC50 [9] was 3.16 µM (inconclusive), the EC50 [10] was 4.08 µM (active) and the AC50 [11] was 1.26 µM (active).

For `N#Cc1ccc(-c2ccc([C@@H]3[C@@H]4CN(C(=O)Nc5ccc(C(F)(F)F)cc5)C[C@H]3N4)cc2)cc1`, the AC50 [12] was 20.5 µM (active) and the AC50 [13] was 5.94 µM (active).

For `Cc1cc(N)n2nc(-c3ccccc3)cc2n1`, the EC50 [14] was 1.04 µM (active) and the EC50 [15] was > 50 µM (not active).

In the case of `O=C(NNC(=O)c1ccccc1O)c1cc2ccccc2o1`, the CC50 [16] is reported as 19.2 µM (active).

In the case of `Sc1nnc(-c2ccccn2)n1/N=C/c1cccc2ccccc12`, the IC50 [17] is reported as 2.35 µM (active) and the AC50 [18] is reported as 10.8 µM (active).

In the case of `O=C(Nc1ccccn1)c1cc2ccccc2o1`, the EC50 [19] is reported as 3.03 µM (active), the EC50 [3] is reported as > 150 µM (inconclusive) and the EC50 [14] is reported as 0.22 µM (active). For the same compound, the EC50 [7] was 11.2 µM (active), the EC50 [8] was 11.2 µM (active) and the EC50 [9] was 16.1 µM (active). For the same compound, the EC50 [20] was 3.9 µM (active) and the EC50 [15] was > 50 µM (not active).

In the case of `CCOc1ccc(-c2cnc3ccccc3n2)cc1`, the AC50 [21] is reported as 1.77 µM (active), the AC50 [22] is reported as 97.4 µM (active) and the EC50 [10] is reported as 10 µM (active). For the same compound, the AC50 [23] was 1.8 µM (active), the AC50 [24] was 30.8 µM (active) and the IC50 [25] was > 100 µM (inactive).

For `COc1ccc(C(=O)NCC(=O)N2CCc3ccccc3C2)cc1`, the IC50 [26] was > 109 µM (inactive) and the IC50 [27] was > 83.3 µM (inactive).

With `Cc1cccc(NC(=O)c2csnn2)n1` the IC50 [26] was > 109 µM (inactive) and the IC50 [27] was > 83.3 µM (inactive).
